Laboratory results reported in US20020147136A1, “Compounds for targeting endothelial cells, compositions containing the same and methods for their use” (priority 2000, published 2002).
Residues, ends and D or L forms follow the SMILES beside them.

Legend:
[1] = tested on: Rabbit aortic endothelial cells (RAEC); test: Microbubble binding to RAEC in static culture; type: cell-based; details: free TKPPR 100 μM; 5% bubbles (Composition I of Example 5)
Experimental: Rabbit aortic endothelial cells (RAEC) from Biowhittaker (Cat No. AC-7018, lot 9CC086 from a custom isolation) were obtained frozen on dry ice and stored in liquid nitrogen until thawing. RAEC were cultured and used in bubble binding assays exactly as HAEC (described above), except that EGM2-MV medium (Biowhittaker Cat No. CC-3202) was substituted for EGM-MV.

[2] = molecular target: NP-1/Fc; test: Inhibition of 125I-VEGF165 binding to NP-1/Fc; details: 250 pM 125I-VEGF165, 4° C., 2 hours
Experimental: The ability of various compositions comprising TKPPR monomers or multimers to inhibit ^125I-VEGF binding to NP-1 was evaluated using NP-1/Fc. Competitive binding assays with microtiter plates coated with NP-1/Fc (R&D sytems) were performed using ^125I-VEGF165 as radioligand (Amersham Pharmacia Biotech Cat. No. IM274, Specific Activity: 1000-2500 Ci/mmol). […] Plates (Nunc MaxiSorp white opaque Microtiter plate [C-bottom, 437796]) were coated by incubating the wells with 75 µl of a solution containing 3 μlg/mL NP-1/Fc in D-PBS/0.1% NaAzide overnight at 4° C. after covering with sealing tape (Dynex, VWR Cat. No. 62402-931). […] All points were derived from triplicate wells, and for each set of replicates in NP-1/Fc-coated wells, a companion set in the absence of the receptor was included. For competitive binding, a series of unlabelled competitor concentrations were prepared in a 250 pM solution of ^1251-VEGF165 in assay buffer Solutions were added to 1.2 ml polypropylene tubes conforming to the microtiter format (Costar Cat. No. 29442-602), and transferred from these tubes to microtiter wells, without further dilution, using a multichannel pipettor. After addition of the appropriate solutions, microtiter plates were incubated at 4° C. for 2 hours. […] The plates were blotted dry and 25 μl deionized water and 100 μl scintillation fluid (Optiphase SuperMix, Wallac) were added to each well. Plates were agitated using a Plate Shaker (Hyperion, Cat. No. 4030-100F) for 3-5 minutes and were then counted using a Microplate Scintillation Counter (Wallac Microbeta Trilux) A set of serially diluted 125I-VEGF165 standard wells ranging from 200 to 0.04 pM were included with each experiment to aid in quantification of the amount of radiolabel bound.

[3] = tested on: Human Umbilical Vein Endothelial Cells (HUVECS)
Experimental: The ability of compositions comprising a TKPPR monomer and a TKPPR multimer to inhibit ^125I-VEGF binding to endothelial cells was evaluated using HUVECs.

[4] = tested on: HAEC; test: Inhibition of TKPPR-bubble binding to HAEC in static culture by competing agents; type: cell-based, human; details: for inhibition of bubble binding: 10 μM free TKPPR; for Bubbles Bound (average of duplicate): 1% BRU-114 bubbles
Experimental: Vials of the compositions of example 5 and of example 6 may be reconstituted with 5 mL of sterile saline, injected using a 20-guage 1.5 inch needle. Bubbles may be then formed within the vials by shaking by hand vigorously for 30 seconds. 1 to 5 mL of the bubble formulation may be removed from each vial and diluted with 3 volumes of D-PBS (without calcium or magnesium) within 1 hour of use.
Chamber slides containing confluent HAEC may be drained of culture medium, which was immediately replaced with one of the final bubble solutions prepared above. The wells may be slightly overfilled such that the liquid meniscus protrudes slightly above the plastic well-forming scaffold of the slide. Bubble solutions may be only added to alternate wells to minimize liquid cross-talk. The wells may be sealed with a piece of Parafilm and the slide incubated 20 minutes, inverted (according to Klibanov A. L., Advanced drug Delivery Reviews, 37, 1999, 139-157) to allow the bubbles to rise and make contact with the cells, after which the solutions may be poured off. Weakly associated bubbles may be removed by washing each well twice with 0.5 mL of D-PBS, swirling gently each time before pouring off. Additional D-PBS (0.5 mL) may be added to wells after the washes to keep the cells submerged until microscopic evaluation.
Composition I of Example 5 was repeated exactly as described except that 0.5 mg DPPE-GTKPPR was added (instead of 2.5 mg) yielding compositions with 1% DPPE-GTKPPR. Vials of this composition as well as that of composition I ofExample 5 (5% DPPE-GTKPPR) were reconstituted with 5 mL of sterile saline, injected using a 20-guage 1.5 inch needle. Bubbles were then formed within the vials by shaking by hand vigorously for 30 seconds. 1 to 5 mL of the bubble formulation was removed from each vial and diluted with 3 volumes of D-PBS (without calcium or magnesium) within 1 hour of use.
Chamber slides containing confluent HAEC were drained of culture medium, which was immediately replaced with one of the final bubble solutions prepared above. The wells were slightly overfilled such that the liquid meniscus protruded slightly above the plastic well-forming scaffold of the slide. Bubble solutions were only added to alternate wells to minimize liquid cross-talk. The wells were sealed with a piece of Parafilm and the slide was incubated 20 minutes, inverted to allow the bubbles to rise and make contact with the cells, after which the solutions were poured off. Weakly associated bubbles were removed by washing each well twice with 0.5 mL of D-PBS, swirling gently each time pouring off. Additional D-PBS (0.5 mL) was added to wells after the washes to keep the cells submerged until microscopic evaluation.
Assays were performed as described for Example 7 using microbubble compositions containing 2% BRU-114 (Composition I of Example 5) as a % of total phospholipid in the composition.
Compositions were reconstituted and assays were performed as described in Example 7 using microbubble compositions containing 1% BRU-114 (Composition I of Example 5) as a % of total phospholipid in the composition.
Assays were performed as described for Example 7 using microbubble compositions containing 2% BRU-114 (as a % of total phospholipid in the composition).

Compound: CC(O)C(N)C(=O)NC(CCCCN)C(=O)N1CCCC1C(=O)N1CCCC1C(=O)NC(CCCNC(=N)N)C(=O)O [TKPPR, L-Arginine, L-threonyl-L-lysyl-L-prolyl-L-prolyl] (H-TKPPR-OH; configuration not given here)
- RAEC bubbles bound [1]: 21
- IC50 [2]: 43 µM
- IC50 [3]: 250 µM
- inhibition of bubble binding ([4]; 1% composition bubbles): 82.7%
- inhibition of bubble binding ([4]; 5% composition bubbles): no inhibition
- block of bubble association with HAEC ([4]; Example 7, 10 to 100 μM free TKPPR peptide): blocked
- Bubbles Bound (average of duplicate) ([4]; competitor 5 microM): 790
- Bubbles Bound (average of duplicate) ([4]; competitor 10 microM): 528
- Bubbles Bound (average of duplicate) ([4]; competitor 25 microM): 106
- Bubbles Bound % of control binding ([4]; competitor 25 microM, 2% BRU-114 bubbles): 16%
- Bubbles Bound (average of duplicate) ([4]; competitor 50 microM): 56
- Bubbles Bound (average of duplicate) ([4]; competitor 100 microM): 17
- Average % Inhibition of bubble binding ([4]; free TKPPR 5 μM, 1% composition bubbles): 45.7%
- Average % Inhibition of bubble binding ([4]; free TKPPR 10 μM, 1% composition bubbles): 79.6%
- Average % Inhibition of bubble binding ([4]; free TKPPR 25 μM, 1% composition bubbles): 82.0%
- Average % Inhibition of bubble binding ([4]; free TKPPR 50 μM, 1% composition bubbles): 92.7%
- Average % Inhibition of bubble binding ([4]; free TKPPR 100 μM, 1% composition bubbles): 93.7%
- HAEC bubbles bound ([4]; free TKPPR 100 μM, 5% bubbles (Composition I of Example 5)): 58
